Measured values: patent publication US20250230193A1, “CYCLIC COMPOUND HAVING SELECTIVE KRAS INHIBITORY EFFECT ON HRAS AND NRAS” (CHUGAI SEIYAKU KABUSHIKI KAISHA, priority 2022, published 2025)

Columns and labels:
[1] = target: GDP-bound NRAS wild-type protein (Homo sapiens, UniProt P01111); experiment: Binding to NRAS by surface plasmon resonance (SPR), Single Cycle Kinetics
[2] = target: GDP-bound HRAS wild-type protein (Homo sapiens, UniProt P01112); experiment: Binding to HRAS by surface plasmon resonance (SPR), Single Cycle Kinetics
GDP-bound HRAS wild-type protein, sequence (P01112 whole entry): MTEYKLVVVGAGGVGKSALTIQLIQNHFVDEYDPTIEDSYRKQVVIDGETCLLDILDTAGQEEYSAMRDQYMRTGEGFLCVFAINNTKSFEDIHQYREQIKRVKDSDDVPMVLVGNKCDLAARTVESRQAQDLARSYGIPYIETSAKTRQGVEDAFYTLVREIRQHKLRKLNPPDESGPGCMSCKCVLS

[3] = GDP-bound NRAS wild-type vs GDP-bound KRAS wild-type, SPR
[4] = GDP-bound HRAS wild-type vs GDP-bound KRAS wild-type, SPR

GDP-bound NRAS wild-type protein, sequence (P01111 whole entry): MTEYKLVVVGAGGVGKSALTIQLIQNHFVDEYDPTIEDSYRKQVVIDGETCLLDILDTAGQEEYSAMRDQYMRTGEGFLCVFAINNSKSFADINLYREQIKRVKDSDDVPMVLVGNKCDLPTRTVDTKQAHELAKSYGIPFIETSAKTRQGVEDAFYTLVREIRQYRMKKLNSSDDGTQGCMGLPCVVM

With `CCCOC[C@H]1C(=O)N[C@@H]([C@@H](C)OCC)C(=O)N(C)CC(=O)N(C)[C@H]2C/C=C\CCN(C2=O)[C@@H](Cc2ccc(C)cc2)C(=O)N(C)CC(=O)N[C@@H](CCc2ccc(C(F)(F)F)c(OC)c2)C(=O)N2C[C@@H](C)C[C@H]2C(=O)NC2(CC(C)(C)C2)C(=O)N(C)[C@@H](C2CCCC2)C(=O)N(C)[C@H](C(=O)N(C)CC)CC(=O)N1C` [PP2423] the “NRAS/KRAS (ratio of KD value with respect to NRAS to KD value with respect to KRAS)” value ([1]; SPR, GDP-bound NRAS wild-type vs GDP-bound KRAS wild-type) was “A (a compound having 10 or more and less than 20 is denoted as A)” and the “HRAS/KRAS (ratio of KD value with respect to HRAS to KD value with respect to KRAS)” value ([2]; SPR, GDP-bound HRAS wild-type vs GDP-bound KRAS wild-type) was “A (a compound having 10 or more and less than 20 is denoted as A)”.
With `CC[C@H](C)[C@@H]1NC(=O)[C@H](CC2CC2)N(C)C(=O)C[C@@H](C(=O)N(C)CC)N(C)C(=O)[C@H](C2CCCC2)N(C)C(=O)C2(CC(C)(C)C2)NC(=O)[C@@H]2C[C@H](C)CN2C(=O)[C@H](CCc2ccc(C(F)(F)F)c(OC)c2)NC(=O)CN(C)C(=O)[C@H](Cc2ccc(C)cc2)N2CC/C=C\C[C@@H](C2=O)N(C)C(=O)CN(C)C1=O` [PP1899] the “NRAS/KRAS (ratio of KD value for NRAS to KD value for KRAS)” value [1, 3] was “A (a compound having 10 or more and less than 20 is denoted as A)” and the “HRAS/KRAS (ratio of KD value for HRAS to KD value for KRAS)” value [2, 4] was “B (a compound having 3 or more and less than 10 is denoted as B)”.
With `CCC[C@H]1C(=O)N[C@@H]([C@@H](C)CC)C(=O)N(C)CC(=O)N(C)[C@H]2C/C=C\CCN(C2=O)[C@@H](Cc2ccc(C(F)(F)F)cc2)C(=O)N(C)CC(=O)N[C@@H](CCc2cc(F)c(C(F)F)c(F)c2)C(=O)N2C[C@H](OCC)C[C@H]2C(=O)NC2(CC(C)(C)C2)C(=O)N(C)[C@@H](C2CCCC2)C(=O)N(C)[C@H](C(=O)N(C)C)CC(=O)N1C` [PP2780] the “NRAS/KRAS (ratio of KD value with respect to GDP-bound NRAS wild-type protein to KD value with respect to KRAS)” value ([1]; class symbols) was “A (a compound having 10 or more and less than 20 is denoted as A)” and the “HRAS/KRAS (ratio of KD value with respect to GDP-bound HRAS wild-type protein to KD value with respect to KRAS)” value ([2]; class symbols) was “A (a compound having 10 or more and less than 20 is denoted as A)”.
For `CCC[C@H]1C(=O)N[C@@H]([C@@H](C)CC)C(=O)N(C)CC(=O)N(C)[C@H]2C/C=C\CCN(C2=O)[C@@H](Cc2ccc(C(F)(F)F)cc2)C(=O)N(C)CC(=O)N[C@@H](CCc2cc(F)c(C(F)(F)F)c(F)c2)C(=O)N2C[C@H](OCC)C[C@H]2C(=O)NC2(CC(C)(C)C2)C(=O)N(C)[C@@H](C2CCCC2)C(=O)N(C)[C@H](C(=O)N2CCC2)CC(=O)N1C` [PP1943], the “NRAS/KRAS (ratio of KD value for NRAS to KD value for KRAS)” value [1, 3] was “A (a compound having 10 or more and less than 20 is denoted as A)” and the “HRAS/KRAS (ratio of KD value for HRAS to KD value for KRAS)” value [2, 4] was “B (a compound having 3 or more and less than 10 is denoted as B)”.
In the case of `CC[C@H](C)[C@@H]1NC(=O)[C@H](CC(C)C)N(C)C(=O)C[C@@H](C(=O)N2CCOCC2)N(C)C(=O)[C@H](C2CCCC2)N(C)C(=O)C2(CCCC2)NC(=O)[C@@H]2C[C@H](OC)CN2C(=O)[C@H](CCc2cc(F)c(C(F)(F)F)c(F)c2)NC(=O)CN(C)C(=O)[C@H](Cc2ccc(C(F)(F)F)cc2)N2CCCCC[C@@H](C2=O)N(C)C(=O)CN(C)C1=O` [PP0495], the “NRAS/KRAS (ratio of KD value with respect to GDP-bound NRAS wild-type protein to KD value with respect to KRAS)” value ([1]; SPR) is reported as “A (a compound having 10 or more and less than 20 is denoted as A)” and the “HRAS/KRAS (ratio of KD value with respect to GDP-bound HRAS wild-type protein to KD value with respect to KRAS)” value ([2]; SPR) is reported as “B (a compound having 3 or more and less than 10 is denoted as B)”.
In the case of `CCC[C@H]1C(=O)N[C@@H]([C@@H](C)CC)C(=O)N(C)CC(=O)N(C)[C@H]2C/C=C\CCN(C2=O)[C@@H](Cc2ccc(C(F)(F)F)cc2)C(=O)N(C)CC(=O)N[C@@H](CCc2cc(F)c(Cl)c(F)c2)C(=O)N2C[C@H](OCC)C[C@H]2C(=O)NC2(CC(C)(C)C2)C(=O)N(C)[C@@H](C2CCCC2)C(=O)N(C)[C@H](C(=O)N(C)C)CC(=O)N1C` [PP1758], the “NRAS/KRAS (ratio of KD value for NRAS to KD value for KRAS)” value [1, 3] is reported as “AA (a compound having 20 or more is denoted as AA)” and the “HRAS/KRAS (ratio of KD value for HRAS to KD value for KRAS)” value [2, 4] is reported as “A (a compound having 10 or more and less than 20 is denoted as A)”.
With `CCC[C@H]1C(=O)N[C@@H]([C@@H](C)CC)C(=O)N(C2CC2)CC(=O)N(C)[C@H]2C/C=C\CCN(C2=O)[C@@H](CC2CCC(F)(F)CC2)C(=O)N(C)CC(=O)N[C@@H](CCc2cc(F)c(C(F)(F)F)c(F)c2)C(=O)N2C[C@H](OCC)C[C@H]2C(=O)NC2(CC(C)(C)C2)C(=O)N(C)[C@@H](C2CCCC2)C(=O)N(C)[C@H](C(=O)N(C)C)CC(=O)N1C` [PP2566] the “NRAS/KRAS (ratio of KD value with respect to GDP-bound NRAS wild-type protein to KD value with respect to KRAS)” value ([1]; class symbols) was “A (a compound having 10 or more and less than 20 is denoted as A)” and the “HRAS/KRAS (ratio of KD value with respect to GDP-bound HRAS wild-type protein to KD value with respect to KRAS)” value ([2]; class symbols) was “B (a compound having 3 or more and less than 10 is denoted as B)”.
